Experimental data from PubChem BioAssay (NCI).
Where “and” joins values, the source holds several entries; their conditions need not be identical. Equal entries are not always repeated.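 Exposure lasted 48 hours, with cells grown in 96-well plates and compounds tested at five concentrations. GI50 marks 50% less growth. TGI denotes the concentration required for complete inhibition of growth.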

Legend:
Test in all cases: NCI anticancer screen, dose series, 48 h
HOP-62 NSCLC = system: HOP-62 NSCLC
786-0 renal = system: 786-0 renal
HCT-116 colon = system: HCT-116 colon
CCRF-CEM leukemia = system: CCRF-CEM leukemia
DMS 273 small cell lung = system: DMS 273 small cell lung
SK-MEL-28 melanoma = system: SK-MEL-28 melanoma
SR leukemia = system: SR leukemia
RXF 393 renal = system: RXF 393 renal
M19-MEL melanoma = system: M19-MEL melanoma
RPMI-8226 leukemia = system: RPMI-8226 leukemia

| SMILES | TGI (HOP-62 NSCLC) | TGI (786-0 renal) | TGI (HCT-116 colon) | TGI (CCRF-CEM leukemia) | TGI (DMS 273 small cell lung) | TGI (SK-MEL-28 melanoma) | TGI (SR leukemia) | TGI (RXF 393 renal) | TGI (M19-MEL melanoma) | TGI (RPMI-8226 leukemia) | GI50 (HOP-62 NSCLC) | GI50 (RPMI-8226 leukemia) | GI50 (786-0 renal) | GI50 (HCT-116 colon) | GI50 (CCRF-CEM leukemia) | GI50 (SK-MEL-28 melanoma) | GI50 (RXF 393 renal) | GI50 (SR leukemia) | GI50 (DMS 273 small cell lung) |
| --- | --- | --- | --- | --- | --- | --- | --- | --- | --- | --- | --- | --- | --- | --- | --- | --- | --- | --- | --- |
| COc1cccc2nc3cc(C)c(C)cc3nc12 | > 100 µM | > 100 µM | > 100 µM | > 100 µM | > 100 µM | > 100 µM | > 100 µM | > 100 µM | > 100 µM | – | – | – | – | – | – | – | – | – | – |
| CCOC(=O)c1nc(-c2ccccc2)oc1OCC | > 100 µM | > 100 µM | > 100 µM | > 100 µM | > 100 µM | > 100 µM | – | > 100 µM | > 100 µM | > 100 µM | – | – | – | – | – | – | – | – | – |
| O=c1[nH]c(-c2ccc(-c3nc4cc([N+](=O)[O-])ccc4c(=O)[nH]3)cc2)nc2cc([N+](=O)[O-])ccc12 | > 100 µM | > 100 µM | > 100 µM | > 100 µM | > 100 µM | > 100 µM | > 100 µM | > 100 µM | > 100 µM | > 100 µM | – | – | – | – | – | – | – | – | – |
| O=C(Nc1nc(=S)c2c(ncn2CCO)[nH]1)c1ccccc1 | > 100 µM | > 100 µM | > 100 µM | > 100 µM | > 100 µM | – | > 100 µM | > 100 µM | > 100 µM | > 100 µM | – | – | – | – | – | – | – | – | – |
| CC(=O)Nc1ccc(/C=C/C(=O)c2sc(-c3nc(C)c(C(=O)/C=C/c4ccc(NC(C)=O)cc4)s3)nc2C)cc1 | > 100 µM | > 100 µM | > 100 µM | > 100 µM | > 100 µM | > 100 µM | > 100 µM | > 100 µM | > 100 µM | – | – | – | – | – | – | – | – | – | – |
| O=C1NC2C=CN(Cc3ccccc3)C=C2C(=O)N2CCCC12 (configuration not stated) | > 100 µM | > 100 µM | > 100 µM | > 100 µM | > 100 µM | > 100 µM | > 100 µM | > 100 µM | > 100 µM | – | – | – | – | – | – | – | – | – | – |
| COc1ccc(/C=C2\CCC(CN(C)C)C2=O)cc1OC (configuration not stated) | 39.9 µM | 6.42 µM | 7.01 µM | 6.74 µM | 29.8 µM | 13.8 µM | 9.26 µM | 5.16 µM | 24.4 µM | 5.95 µM | – | – | – | – | – | – | – | – | – |
| C=CCNC(=O)NCCCC(NC(C)=O)C(=O)NCc1ccccc1 (configuration not stated) | > 100 µM | > 100 µM | – | > 100 µM | > 100 µM | > 100 µM | – | > 100 µM | > 100 µM | > 100 µM | – | – | – | – | – | – | – | – | – |
| OCC1OC(n2cnc3c(=S)nc[nH]c32)C(O)C1O (configuration not stated) | > 2500 µM | > 2500 µM | > 2500 µM | > 2500 µM | > 2310 µM | > 2500 µM | > 2500 µM | > 2500 µM | > 2500 µM | > 2500 µM | 1.48 µM | 2570 nM | 2710 nM | 2780 nM | 3.35 µM | > 62.5 µM | > 100 µM | – | – |
| CS/C(=N\c1nccs1)NC(=O)c1cccc(Cl)c1 | > 100 µM | > 100 µM | > 100 µM | > 100 µM | > 100 µM | > 100 µM | > 100 µM | > 100 µM | > 100 µM | > 100 µM | – | – | – | – | – | – | – | – | – |
| CN(C)c1ccc(C(=C2C=CC(=[N+](C)C)C=C2)c2ccc(N(C)C)cc2)cc1 | 1.11 µM and 2.43 µM | 0.709 µM and 1.17 µM | 0.36 µM | 0.832 µM | 1.15 µM | 1.09 µM and 1.9 µM | 0.672 µM and 3.2 µM | 0.468 µM and 0.695 µM | 1.41 µM | 0.165 µM and 0.163 µM | 0.0447 µM | 35.8 nM | 187 nM | 36.3 nM | – | 0.219 µM | 0.113 µM | 59.1 nM | – |
| Cc1ccc(Sc2ccc(C)cc2[N+](=O)[O-])c([N+](=O)[O-])c1 | > 100 µM | > 100 µM | > 100 µM | > 100 µM | > 100 µM | > 100 µM | – | > 100 µM | > 100 µM | > 100 µM | – | – | – | – | – | – | – | – | – |
| COc1cc(C)c(O)c(C(=O)O)c1 | > 100 µM | > 100 µM | > 100 µM | > 100 µM | > 100 µM | > 100 µM | > 100 µM | > 100 µM | > 100 µM | – | – | – | – | – | – | – | – | – | – |
| N.N.NCCCCCCN.O=C([O-])CC(=O)[O-].O=C([O-])CC(=O)[O-].[Pt+4].[Pt+4] | > 100 µM | > 100 µM | > 100 µM | > 100 µM | > 100 µM | > 100 µM | > 100 µM | > 100 µM | – | > 100 µM | 38.7 µM | > 100000 nM | 65700 nM | > 100000 nM | 15.6 µM | > 100 µM | > 41.4 µM | > 41900 nM | 40.8 µM |
| O=C(CCc1cc(-c2ccccc2)nc(=S)[nH]1)Nc1ccccc1[N+](=O)[O-] | > 100 µM | > 100 µM | > 100 µM | > 100 µM | > 100 µM | > 100 µM | > 100 µM | > 100 µM | > 100 µM | > 100 µM | – | – | – | – | – | – | – | – | – |
| C=C1CCC2[C@@H](CCC3[C@]2(C)CCC[C@]3(C)C(=O)OC)C1CCO (some centres not stated) | 41.7 µM | 49.2 µM | 19.2 µM | 33.1 µM | 24.9 µM | 28.1 µM | – | – | 29.9 µM | 17 µM | – | – | – | – | – | – | – | – | – |
| C=CCC(OCCOCC)c1cc(OCCOCC)ccc1OC (configuration not stated) | > 100 µM | > 100 µM | – | > 100 µM | > 100 µM | > 100 µM | – | > 100 µM | > 100 µM | > 100 µM | – | – | – | – | – | – | – | – | – |
| COC(=O)C1=C(C(=O)OC)SC(=C(N=Nc2ccccc2)c2ccccc2)S1 | > 100 µM | > 100 µM | > 100 µM | > 100 µM | > 100 µM | > 100 µM | > 100 µM | – | > 100 µM | > 100 µM | – | – | – | – | – | – | – | – | – |
| CCN(CC)CC(C(=O)Nc1c(C)cccc1C)/C(C)=N\NC(=O)c1ccncc1 (configuration not stated) | > 100 µM | > 100 µM | > 100 µM | – | > 100 µM | > 100 µM | > 100 µM | > 100 µM | > 100 µM | – | – | – | – | – | – | – | – | – | – |
| C/C=C/C=C/CCCCCCCCCCCCCC1(OC)C=CC(CC(=O)OC)OO1 (configuration not stated) | 41.6 µM | 3.51 µM | 21.7 µM | 5.8 µM | 3.03 µM | 28.7 µM | 7.13 µM | 15.3 µM | 24.1 µM | 46 µM | 20 µM | – | 1750 nM | – | 2.44 µM | – | 4.24 µM | – | – |
| COC(=O)C1=C(O)c2cc3c(cc2[C@H](c2cc(OC)c(OC)c(OC)c2)C1C(=O)OC)OCO3 (some centres not stated) | > 100 µM | > 100 µM | > 100 µM | > 100 µM | > 100 µM | > 100 µM | > 100 µM | 73.4 µM | > 100 µM | > 100 µM | – | – | – | – | – | – | – | – | – |
| CCCC(Sc1ccccc1)P(=O)(c1ccccc1)c1ccccc1 (configuration not stated) | > 100 µM | > 100 µM | > 100 µM | > 100 µM | > 100 µM | > 100 µM | 66.4 µM | > 100 µM | > 100 µM | 51.8 µM | – | – | – | – | – | – | – | – | – |
| C[C@@H](NC1CCC[C@H]1O)c1ccccc1 (some centres not stated) | > 100 µM | > 100 µM | > 100 µM | > 100 µM | > 100 µM | > 100 µM | – | > 100 µM | > 100 µM | > 100 µM | – | – | – | – | – | – | – | – | – |
| O=C1c2ccccc2CC1C1(O)C(=O)Nc2ccccc21 (configuration not stated) | > 100 µM | > 100 µM | > 100 µM | – | > 100 µM | > 100 µM | – | > 100 µM | > 100 µM | > 100 µM | – | – | – | – | – | – | – | – | – |
